Source: patent US7214669B2, “Tetracycline derivatives and methods of use thereof” (Tetragenex Pharmaceuticals, Inc., priority 2001, dated 2007)
“And” between values parts separate entries of the source, which are not always exact repeats. Identical values can stand only once.

Legend:
MMP2 (Gelatinase A) = target: T1, MMP2 (Gelatinase A) (Homo sapiens, UniProt P08253); experiment: MMP2 (Gelatinase A) inhibition, 14C gelatin release; type: biochemical; details: 37° C., 16 hours; read-out: MMP-2 inhibitory activity, IC50
T1 sequence (P08253 110-660): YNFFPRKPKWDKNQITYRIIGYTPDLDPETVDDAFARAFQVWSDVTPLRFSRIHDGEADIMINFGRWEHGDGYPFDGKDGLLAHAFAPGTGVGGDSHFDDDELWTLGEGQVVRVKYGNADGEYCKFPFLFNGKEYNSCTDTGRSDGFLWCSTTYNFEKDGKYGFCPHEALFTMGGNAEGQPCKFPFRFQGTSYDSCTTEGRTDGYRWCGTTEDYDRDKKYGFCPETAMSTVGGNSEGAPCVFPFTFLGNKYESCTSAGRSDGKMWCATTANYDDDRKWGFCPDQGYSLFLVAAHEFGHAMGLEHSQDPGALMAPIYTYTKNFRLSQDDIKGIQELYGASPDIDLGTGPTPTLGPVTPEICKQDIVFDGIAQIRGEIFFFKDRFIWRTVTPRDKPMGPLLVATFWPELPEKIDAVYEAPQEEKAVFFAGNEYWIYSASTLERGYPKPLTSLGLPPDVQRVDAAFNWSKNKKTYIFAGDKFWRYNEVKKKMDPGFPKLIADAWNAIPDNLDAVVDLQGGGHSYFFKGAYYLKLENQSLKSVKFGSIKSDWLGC
Description: Protocol for Measuring MMP2 (Gelatinase A) Inhibition
MMP2 activity was determined by the release of trichloracetic acid, TCA, soluble fragments from ^14C acetylated rat skin type I gelatin (Methods in Enzymology 248, 470, 1995. Biochem. J. 195, 1981)
• 100 μg ^14C labelled gelatin (type I collagen denatured 60° C. 20 min) • 50 mM Tris HCl pH 7.9 • 15 mM CaCl2, 0.02% azide • Human recombinant MMP1, 0.1–0.5 nM • ±Tetracycline (up to 1 MM) in a total volume of 250 μl.
Incubations were set at 37° C. for 16 hours. The reaction was stopped by cooling the incubations and addition of 50 μl cold 90% (w/v) trichloracetic acid with careful mixing. TCA precipitation was allowed to proceed for 15 minutes at 4° C. prior to cetrifugation at 10,000 g for 10 minutes at 4° C. 200 μl of the TCA supernatant was taken for the determination of radioactive content by scintillation counting (Packard Opti Phase Supermix scintillation fluid). Only data derived from within the linear part of the assay (10–70% lysis) were utilized. The percentage inhibition of MMP2 by each tetracycline concentration was plotted to derive the IC50 value, using linear regression analysis.

[1] = tested on: PC-3 ML human prostate cancer cells; experiment: Membrane Invasion Culture System (MICS) chemo-invasion assay; type: cell-based; details: 24 hours, + = increased invasiveness
Description: (§1) Another objective was to analyze the effects of specific, tetracycline derived compounds on the in-vitro chemo-invasive potential of: • C8161 human melanoma cells • MDA-MB-231 human breast cancer cells • PC3 human prostate cancer cells • RPM18226 human myeloma cancer cells • Ark human myeloma cancer cells • Arp-1 human myeloma cancer cells
(§2) The Membrane Invasion Culture System (MICS) in vitro chemo-invasion assay was chosen to measure changes in the invasive potential of specific human cancer cells in response to tetracycline derived compounds. Stock solutions of each compound were hydrated in water containing 2% DMSO and pH 10.0. Upon solubilization, HCl was added to the solution to establish a pH of 7.5–8.0. This solution was then wrapped in foil and kept at 4° C. during the 24 hours of assay. Fresh compound was prepared for each assay. The in vitro chemoinvasion analyses for tumor cell invasiveness are performed using the Membrane Invasion Culture System (MICS) as previously described.
(§3) The MICS system is a thermally treated plastic manifold system consisting of two matched sets of plates containing fourteen wells, 13 mm in diameter. Interposed between these plates was a polycarbonate filter containing 10 μm pores and coated with a defined matrix composed of human laminin/collagen IV/gelatin that formed a 35 μm thick barrier between the top and bottom sections of the wells in MICS. Prior to placing this barrier in place, the lower wells were filled with serum-free RPMI culture medium made 50% in conditioned medium obtained from 2-day-old cultures of human fibroblasts which had been cleared of cells and cellular debris by either centrifugation, or filtering through a 0.45 μm sterile filter. The barrier was then placed on the lower wells and fresh serum-free medium added to the upper wells after assembly of the system. Fifty thousand tumor cells were then added to the wells either in the presence of the compound, or the DMSO vehicle (the controls). Of the 12 assay wells on each manifold, 3 randomized wells acted as controls, 3 wells received 1 μg/ml of compound, 3 received 10 μg/ml and 3 received 25 μg/ml. After 24 hours, cells and media were removed from the lower wells and replaced by phosphate buffered saline plus 2 mM EDTA. This solution was used to remove all cells from the lower well, and this wash was added to the recovered cells plus medium from the same well. These samples were then collected onto a polylysine containing polycarbonate membrane containing 3 μm pores using a Dot-Blot manifold system. These collection filters were then fixed in methanol, and stained using Wright's stain (Leukostat staining kit) in situ. The filters were then mounted on microscope slides with microscope immersion oil (which reduced the light refraction from the pores) and 5 microscopic fields were counted to calculate the number of cells which invaded through the membrane over the 24 hour period. These numbers were then statistically analyzed as discussed below.

[2] = tested on: MDA-MB-231 human breast cancer cells; experiment: as above; type: cell-based; details: 24 hours, + = increased invasiveness
Description: as §1, §2, §3

[3] = tested on: RPMI-8226 human myeloma cancer cells; experiment: as above; type: cell-based; details: 24 hours, + = increased invasiveness
Description: as §1, §2, §3

Human recombinant MMP3 = Human recombinant MMP3 (Homo sapiens, UniProt P08254); experiment: MMP3 (Stromelysin 1) inhibition, 14C casein release; type: biochemical; details: 37° C., 16 hours; read-out: MMP-3 inhibitory activity, IC50
Human recombinant MMP3, sequence (P08254 100-477): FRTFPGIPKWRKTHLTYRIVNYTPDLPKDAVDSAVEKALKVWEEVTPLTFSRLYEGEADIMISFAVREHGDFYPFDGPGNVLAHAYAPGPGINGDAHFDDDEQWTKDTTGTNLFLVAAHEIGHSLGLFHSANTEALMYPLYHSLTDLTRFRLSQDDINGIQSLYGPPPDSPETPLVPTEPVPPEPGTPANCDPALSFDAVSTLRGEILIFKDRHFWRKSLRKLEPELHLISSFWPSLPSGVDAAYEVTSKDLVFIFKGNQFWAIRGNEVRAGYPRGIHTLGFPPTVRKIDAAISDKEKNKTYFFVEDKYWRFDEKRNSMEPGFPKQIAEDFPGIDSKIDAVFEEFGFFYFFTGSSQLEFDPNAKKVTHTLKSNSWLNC

Human recombinant MMP14 = Human recombinant MMP14 (Homo sapiens, UniProt P50281); experiment: MMP14 (MTI-MMP) inhibition, 14C collagen release; type: biochemical; details: 35° C., 15 hours; read-out: MMP-14 inhibitory activity, IC50
Description: Protocol for Measuring MMP14 (MTI-MMP) Inhibition by Tetracycline Derivatives
MMP14 activity was determined by the release of soluble ^14C labelled collagen fragments from ^14C acetylated rat skin type I collagen (Methods in Enzymology 80 711, 1981).
• 100 μg ^14C labelled collagen (5–6000 dpm) • 50 mM Tris HCL pH 7.9 • 15 mM CaCl2 0.02% azide • Human recombinant MMP14 50–100 nM • ±Tetracycline (up to 1 mM) in a total volume of 300 μl.
Incubations were at 35° C. for 15 hours. Uncleaved collagen fibrils (which form within the first 10 minutes) were removed by centrifugation at 10,000 g 4° C. 10 minutes 200 μl supernatant were counted in Packard Opti Phase Supermix scintillation fluid using a scintillation counter. Only data derived from within the linear part of the assay (10–70% lysis of the collagen) were utilized. Based on percentage inhibition of the activity of MMP1 alone by a range of concentrations of each sample, the IC50 value for each tetracycline was calculated.

Human recombinant MMP1 = target: T2, Human recombinant MMP1 (Homo sapiens, UniProt P03956); experiment: MMP1 (Collagenase-1) inhibition, 14C collagen release; type: biochemical; details: 35° C., 5 hours; read-out: MMP-1 inhibitory activity, IC50
T2 sequence (P03956 100-469): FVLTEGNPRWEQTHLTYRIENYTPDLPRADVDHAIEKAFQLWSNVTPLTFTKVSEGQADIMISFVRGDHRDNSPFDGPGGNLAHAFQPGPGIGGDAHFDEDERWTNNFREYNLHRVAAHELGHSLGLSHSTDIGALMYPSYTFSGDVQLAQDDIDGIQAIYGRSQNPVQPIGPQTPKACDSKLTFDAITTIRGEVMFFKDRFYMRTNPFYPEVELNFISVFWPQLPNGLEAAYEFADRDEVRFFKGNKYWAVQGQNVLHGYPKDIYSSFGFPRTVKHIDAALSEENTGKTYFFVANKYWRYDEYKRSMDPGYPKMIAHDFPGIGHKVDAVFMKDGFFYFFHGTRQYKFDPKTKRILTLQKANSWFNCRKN

Human recombinant MMP9 = Human recombinant MMP9 (Homo sapiens, UniProt P14780); experiment: MMP9 (Gelatinase B) inhibition, 14C gelatin release; type: biochemical; details: 37° C., 16 hours; read-out: MMP-9 inhibitory activity, IC50
Human recombinant MMP9, sequence (P14780 94-707): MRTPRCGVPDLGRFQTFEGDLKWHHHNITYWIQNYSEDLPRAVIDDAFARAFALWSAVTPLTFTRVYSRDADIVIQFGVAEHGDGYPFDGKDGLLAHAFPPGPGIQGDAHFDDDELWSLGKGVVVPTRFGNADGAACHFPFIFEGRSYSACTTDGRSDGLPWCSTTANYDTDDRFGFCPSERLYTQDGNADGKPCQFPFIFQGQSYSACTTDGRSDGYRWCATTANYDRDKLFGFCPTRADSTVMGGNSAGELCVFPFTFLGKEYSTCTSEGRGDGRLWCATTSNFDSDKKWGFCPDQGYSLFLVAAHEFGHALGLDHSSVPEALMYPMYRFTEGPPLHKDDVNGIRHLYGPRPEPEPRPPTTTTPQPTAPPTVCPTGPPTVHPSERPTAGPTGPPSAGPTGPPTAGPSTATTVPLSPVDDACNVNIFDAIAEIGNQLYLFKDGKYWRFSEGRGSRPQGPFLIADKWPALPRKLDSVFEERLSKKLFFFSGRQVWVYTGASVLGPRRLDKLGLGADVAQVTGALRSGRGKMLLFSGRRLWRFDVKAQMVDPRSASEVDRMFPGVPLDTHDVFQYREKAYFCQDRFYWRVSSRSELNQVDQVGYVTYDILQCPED

[4] = tested on: C8161 human melanoma cells; experiment: Membrane Invasion Culture System (MICS) chemo-invasion assay; type: cell-based; details: 24 hours, + = increased invasiveness
Description: as §1, §2, §3

| SMILES | IC50 (MMP2 (Gelatinase A)) [µM] | percent inhibition, PC-3 ML (Prostrate) ([1]; 1 ug/mL) | percent inhibition, PC-3 ML (Prostrate) ([1]; 10 ug/mL) | percent inhibition, PC-3 ML (Prostrate) ([1]; 25 ug/mL) | percent inhibition, MDA-MB-231 (Breast) ([2]; 25 ug/mL) | percent inhibition, RPMI-8226 (Multiple Myeloma) ([3]; 1 ug/mL) | percent inhibition, RPMI-8226 (Multiple Myeloma) ([3]; 10 ug/mL) | IC50 (Human recombinant MMP3) [µM] | IC50 (Human recombinant MMP14) [µM] | IC50 (Human recombinant MMP1) [µM] | IC50 (Human recombinant MMP9) [µM] | percent inhibition, C8161 (Melanoma) ([4]; 1 ug/mL) | percent inhibition, C8161 (Melanoma) ([4]; 10 ug/mL) [%] | percent inhibition, C8161 (Melanoma) ([4]; 25 ug/mL) | percent inhibition, MDA-MB-231 (Breast) ([2]; 1 ug/mL) | percent inhibition, MDA-MB-231 (Breast) ([2]; 10 ug/mL) | percent inhibition, RPMI-8226 (Multiple Myeloma) ([3]; 25 ug/mL) |
| --- | --- | --- | --- | --- | --- | --- | --- | --- | --- | --- | --- | --- | --- | --- | --- | --- | --- |
| CC(C)CN(C)c1ccc(O)c2c1C(C)C1C(=C(O)C3(O)C(=O)C(C(N)=O)=C(O)C(N(C)C)C3C1O)C2=O (stereo not shown) [Compound 27, 7-Isobutylmethylamino-6-deoxy-5-hydroxytetracycline H2SO4] | 963 | 17^B percent and 9% | 35^B percent and 56^B percent | 70% | 72^B percent and 48^B percent | 24^B percent and 20% | 6% and 9% | 149 | 92 | 498 | 101 |  |  |  |  |  |  |
| CC1c2ccc(C(C)(C)C)c(O)c2C(=O)C2=C(O)C3(O)C(=O)C(C(N)=O)=C(O)C(N(C)C)C3C(O)C21 (stereo not shown) [Compound 39, 9-tertbutyl-6-deoxy-5-hydroxytetracycline H2SO4] | 186 | 44^B percent | 67^B percent | 69^B percent | 76^B percent | 5% | 10% | 682 | 83 | 860 | 114 | 10% | 11 | 24% | 18^B percent | 29^B percent | 46^B percent |
| CC1c2ccc([N+]#N)c(O)c2C(=O)C2=C(O)C3(O)C(=O)C(C(N)=O)=C(O)CC3C(O)C21.O=S(=O)([O-])O (stereo not shown) [Compound 37, 4-Dedimethylamino-6-deoxy-5-hydroxytetracycline-9-diazonium sulfate] | > 1000 | 11% | 26% | 36% | 46^B percent | 10% | 5% | 274 | 41 | 279 | 445 | +1% | 20 | 69^B percent | +6% | 1% | 46^B percent |
| CC1c2cccc(O)c2C(=O)C2=C(O)C3(O)C(=O)C(C(N)=O)=C(O)C([N+](C)(C)C)C3C(O)C21.[I-] (stereo not shown) [Compound 46, 6-deoxy-5-hydroxytetracycline-4-Methiodide] | 3800 | 20% | 16% | 27^B percent | +1% | 7% | +11% | 42 | 90 | 194 | 59 | 21% | 7 | 10% | 20^B percent | +5% | 12% |
| CC(=O)N(CC(C)C)c1ccc(O)c2c1C(C)C1C(=C(O)C3(O)C(=O)C(C(N)=O)=C(O)C(N(C)C)C3C1O)C2=O.O=S(=O)(O)O (stereo not shown) [Compound 29, 7-Acetylisobutylamino-6-deoxy-5-hydroxytetracycline H2SO4] | 983 |  |  | 58% and 69% |  |  | 12% and 13% | 213 | 98 | 895 | 172 |  |  |  |  |  |  |
| CC(=O)OC1C2C(=C(O)C3(O)C(=O)C(C(N)=O)=C(O)C(N(C)C)C13)C(=O)c1c(O)cccc1C2C (stereo not shown) [Compound 28, 6-Deoxy-5-acetoxy-tetracycline H2SO4] | > 1000 |  |  | 80% and 61% | 54^B percent and 45^B percent | 4% and 5% |  | 231 | 49 | > 1000 | 125 |  |  |  |  |  | 34^B percent and 62^B percent |
| CC1c2c([N+](=O)[O-])cc(C(C)(C)C)c(O)c2C(=O)C2=C(O)C3(O)C(=O)C(C(N)=O)=C(O)C(N(C)C)C3C(O)C21 (stereo not shown) [Compound 38, 7-nitro-9-tertbutyl-6-deoxy-5-hydroxytetracycline H2SO4] | 175 | 37^B percent and 38^B percent | 41^B percent and 27^B percent | 41% and 52% | 70^B percent and 37% |  |  | 95 | 69 | 230 | 215 |  |  | 66^B percent and 39% |  |  |  |
